Results reported in PubChem BioAssay AID330 (DTP/NCI, 2004).
Values joined by “and” are separate entries in the source; they are usually repeats but may differ in a detail not shown here. Identical values can stand only once. Toxic doses and inconclusive results are not listed.

Tested on: P388 leukemia ip, CD2F1 mice, survival T/C
Assay: NCI In Vivo Anticancer Drug Screen. Data for tumor model P388 Leukemia (intraperitoneal) in CD2F1 (CDF1) mice
Settings: endpoint: median survival time, higher = longer survival
How it was run: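 Mice carrying the transplanted tumor received test compound or vehicle. Survival was recorded in each group, and the value is the treated-group measurement divided by that of the vehicle-treated control group.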

[1] = dose: 6.25 mg/kg/injection, schedule: Q01DX001 (ip), vehicle: saline with Tween-80
[2] = dose: 12.5 mg/kg/injection, schedule: Q01DX001 (ip), vehicle: saline with Tween-80
[3] = dose: 25.0 mg/kg/injection, schedule: Q01DX001 (ip), vehicle: saline with Tween-80
[4] = dose: 100.0 mg/kg/injection, schedule: Q01DX001 (ip), vehicle: Klucel (hydroxypropylcellulose) (HPC)
[5] = dose: 200.0 mg/kg/injection, schedule: Q01DX001 (ip), vehicle: Klucel (hydroxypropylcellulose) (HPC)
[6] = dose: 50.0 mg/kg/injection, schedule: Q01DX005 (ip), vehicle: saline with Tween-80
[7] = dose: 100.0 mg/kg/injection, schedule: Q01DX005 (ip), vehicle: saline with Tween-80
[8] = dose: 200.0 mg/kg/injection, schedule: Q01DX005 (ip), vehicle: saline with Tween-80
[9] = dose: 50.0 mg/kg/injection, schedule: Q01DX005 (ip), vehicle: Klucel (hydroxypropylcellulose) (HPC)
[10] = dose: 100.0 mg/kg/injection, schedule: Q01DX005 (ip), vehicle: Klucel (hydroxypropylcellulose) (HPC)
[11] = dose: 200.0 mg/kg/injection, schedule: Q01DX005 (ip), vehicle: Klucel (hydroxypropylcellulose) (HPC)
[12] = dose: 60.0 mg/kg/injection, schedule: Q01DX005 (ip), vehicle: Klucel (hydroxypropylcellulose) (HPC)
[13] = dose: 120.0 mg/kg/injection, schedule: Q01DX005 (ip), vehicle: Klucel (hydroxypropylcellulose) (HPC)
[14] = dose: 50.0 mg/kg/injection, schedule: Q01DX009 (ip), vehicle: saline with Tween-80
[15] = dose: 100.0 mg/kg/injection, schedule: Q01DX009 (ip), vehicle: saline with Tween-80
[16] = dose: 200.0 mg/kg/injection, schedule: Q01DX009 (ip), vehicle: saline with Tween-80
[17] = dose: 12.5 mg/kg/injection, schedule: Q01DX009 (ip), vehicle: saline
[18] = dose: 50.0 mg/kg/injection, schedule: Q04DX003 (ip), vehicle: saline with Tween-80
[19] = dose: 100.0 mg/kg/injection, schedule: Q04DX003 (ip), vehicle: saline with Tween-80
[20] = dose: 200.0 mg/kg/injection, schedule: Q04DX003 (ip), vehicle: saline with Tween-80
[21] = dose: 25.0 mg/kg/injection, schedule: Q01DX009 (ip), vehicle: saline with Tween-80
[22] = dose: 60.0 mg/kg/injection, schedule: Q01DX005 (ip), vehicle: saline with Tween-80
[23] = dose: 120.0 mg/kg/injection, schedule: Q01DX005 (ip), vehicle: saline with Tween-80
[24] = dose: 240.0 mg/kg/injection, schedule: Q01DX005 (ip), vehicle: saline with Tween-80
[25] = dose: 15.0 mg/kg/injection, schedule: Q01DX005 (ip), vehicle: Klucel (hydroxypropylcellulose) (HPC)
[26] = dose: 30.0 mg/kg/injection, schedule: Q01DX005 (ip), vehicle: Klucel (hydroxypropylcellulose) (HPC)

Cc1cc2cccc(Br)c(=O)c2o1
T/C [1]: 95 % of control | T/C [2]: 100 % of control | T/C [3]: 104 % of control

CCC(C)C1(O)OC2CC3(C)OC(=CC3=O)/C(C)=C\C3OC(=O)C1(C)C32 (stereo not drawn)
T/C (dose: 10.0 mg/kg/injection, schedule: Q01DX005 (ip), vehicle: saline + alcohol): 96 % of control | T/C (dose: 20.0 mg/kg/injection, schedule: Q01DX005 (ip), vehicle: saline + alcohol): 100 % of control | T/C (dose: 40.0 mg/kg/injection, schedule: Q01DX005 (ip), vehicle: saline + alcohol): 105 % of control | T/C (dose: 80.0 mg/kg/injection, schedule: Q01DX005 (ip), vehicle: saline + alcohol): 99 % of control

C1=NN2C3c4ccccc4C(C1)C32 (stereo not drawn)
T/C [4]: 109 % of control | T/C [5]: 113 % of control

O=C(NC(Cc1ccc(O)cc1)C(=O)O)c1ccccc1 (stereo not drawn)
T/C [6]: 99 % of control | T/C [7]: 100 % of control | T/C [8]: 88 % of control

NC(Cc1ccccc1Cl)c1nn[nH]n1 (stereo not drawn)
T/C (dose: 25.0 mg/kg/injection, schedule: Q04DX002 (ip), vehicle: saline with Tween-80): 99 % of control and 93 % of control | T/C (dose: 50.0 mg/kg/injection, schedule: Q04DX002 (ip), vehicle: saline with Tween-80): 107 % of control and 95 % of control and 96 % of control | T/C (dose: 100.0 mg/kg/injection, schedule: Q04DX002 (ip), vehicle: saline with Tween-80): 100 % of control | T/C (dose: 200.0 mg/kg/injection, schedule: Q04DX002 (ip), vehicle: saline with Tween-80): 98 % of control and 100 % of control

COc1ccc(C(Cc2cc(OC)c(OC)cc2Br)NC=O)cc1OC (stereo not drawn)
T/C [6]: 89 % of control | T/C [7]: 90 % of control | T/C [8]: 91 % of control

Nc1cccc(C(=O)Nc2ccc3c(O)c(N=Nc4ccccc4)c(S(=O)(=O)O)cc3c2)c1
T/C [9]: 103 % of control | T/C [10]: 107 % of control | T/C [11]: 103 % of control

COc1ccc(C(c2cc3c(cc2O)OCO3)N2CCCC2)cc1 (stereo not drawn)
T/C [12]: 100 % of control | T/C [13]: 100 % of control

Cc1ccc(S(=O)(=O)NC(=O)Nc2ncn[nH]2)cc1
T/C [14]: 99 % of control | T/C [15]: 98 % of control | T/C [16]: 104 % of control

O=[N+]([O-])c1cnc(Sc2ncccn2)c([N+](=O)[O-])c1
T/C (dose: 3.12 mg/kg/injection, schedule: Q01DX009 (ip), vehicle: saline): 96 % of control | T/C (dose: 3.12 mg/kg/injection, schedule: Q01DX009 (ip), vehicle: suspension in saline): 107 % of control | T/C (dose: 6.25 mg/kg/injection, schedule: Q01DX009 (ip), vehicle: saline): 96 % of control | T/C (dose: 6.25 mg/kg/injection, schedule: Q01DX009 (ip), vehicle: suspension in saline): 104 % of control | T/C [17]: 99 % of control | T/C (dose: 12.5 mg/kg/injection, schedule: Q01DX009 (ip), vehicle: suspension in saline): 98 % of control and 108 % of control | T/C (dose: 25.0 mg/kg/injection, schedule: Q01DX009 (ip), vehicle: suspension in saline): 105 % of control | T/C (dose: 50.0 mg/kg/injection, schedule: Q01DX009 (ip), vehicle: suspension in saline): 99 % of control and 107 % of control

COc1cc(CCN=Cc2cc(Cl)cc(Cl)c2O)c([N+](=O)[O-])cc1OC
T/C [9]: 93 % of control | T/C [10]: 102 % of control | T/C [11]: 111 % of control

Nc1ccc(S(=O)(=O)Nc2ccccc2O)cc1
T/C (dose: 3.12 mg/kg/injection, schedule: Q01DX001 (ip), vehicle: saline with Tween-80): 99 % of control | T/C [1]: 106 % of control | T/C [2]: 97 % of control | T/C [3]: 94 % of control | T/C (dose: 50.0 mg/kg/injection, schedule: Q01DX001 (ip), vehicle: saline with Tween-80): 100 % of control

CC(C)N(C(=S)/N=C1/SCS(=O)(=O)N1Cc1ccccc1)C(C)C
T/C [18]: 97 % of control | T/C [19]: 95 % of control | T/C [20]: 98 % of control

CCCCC(C(=O)OCC)/C(C)=N\NC(N)=S (stereo not drawn)
T/C [12]: 100 % of control | T/C [13]: 99 % of control | T/C (dose: 240.0 mg/kg/injection, schedule: Q01DX005 (ip), vehicle: Klucel (hydroxypropylcellulose) (HPC)): 98 % of control

C=Cc1c(C)c2cc3[nH]c(cc4nc(cc5nc(cc1[nH]2)C(C)=C5CCC(=O)OC)C(CCC(=O)OC)=C4C)c(C)c3C#N
T/C [9]: 107 % of control | T/C [10]: 109 % of control | T/C [11]: 111 % of control

CCOC(=O)c1ccc(N(CCNc2cnc(NC(C)=O)[nH]c2=O)C(C)=O)cc1
T/C [21]: 92 % of control | T/C [14]: 88 % of control | T/C [15]: 92 % of control | T/C [16]: 89 % of control

CC1(c2cccs2)NC(=O)NC1=O (stereo not drawn)
T/C [21]: 100 % of control | T/C [14]: 109 % of control | T/C [15]: 98 % of control | T/C [16]: 104 % of control | T/C (dose: 400.0 mg/kg/injection, schedule: Q01DX009 (ip), vehicle: saline with Tween-80): 101 % of control

CC1=NN(C(=O)c2ccncc2)C(=O)C1N=Nc1c(C)n(C)n(-c2ccccc2)c1=O (stereo not drawn)
T/C [14]: 102 % of control | T/C [15]: 101 % of control | T/C [16]: 99 % of control

CO/C=C1\CC(=O)N(c2cccc([N+](=O)[O-])c2)C1=O
T/C (dose: 25.0 mg/kg/injection, schedule: Q04DX003 (ip), vehicle: saline): 97 % of control | T/C (dose: 50.0 mg/kg/injection, schedule: Q04DX003 (ip), vehicle: saline): 96 % of control | T/C (dose: 100.0 mg/kg/injection, schedule: Q04DX003 (ip), vehicle: saline): 94 % of control and 96 % of control | T/C (dose: 200.0 mg/kg/injection, schedule: Q04DX003 (ip), vehicle: saline): 90 % of control | T/C (dose: 400.0 mg/kg/injection, schedule: Q04DX003 (ip), vehicle: saline): 97 % of control

COc1cccc(OC(=O)c2ccc(OC)c(C3=CC(=O)C=CC3=O)c2)c1
T/C [4]: 94 % of control | T/C [5]: 93 % of control | T/C (dose: 400.0 mg/kg/injection, schedule: Q01DX001 (ip), vehicle: Klucel (hydroxypropylcellulose) (HPC)): 89 % of control

C1CCC(N2CCOCC2)CC1
T/C [17]: 99 % of control | T/C (dose: 25.0 mg/kg/injection, schedule: Q01DX009 (ip), vehicle: saline): 117 % of control | T/C (dose: 50.0 mg/kg/injection, schedule: Q01DX009 (ip), vehicle: saline): 100 % of control and 101 % of control

CC1=CC(C)(C)NC(=S)N1c1cccc2ccccc12
T/C [21]: 116 % of control | T/C [14]: 103 % of control | T/C [15]: 110 % of control | T/C [16]: 113 % of control

COc1ccc(C(=O)N=C(N)n2nc(C)cc2C)cc1
T/C (dose: 100.0 mg/kg/injection, schedule: Q04DX003 (ip), vehicle: Klucel (hydroxypropylcellulose) (HPC)): 90 % of control | T/C (dose: 200.0 mg/kg/injection, schedule: Q04DX003 (ip), vehicle: Klucel (hydroxypropylcellulose) (HPC)): 101 % of control | T/C (dose: 400.0 mg/kg/injection, schedule: Q04DX003 (ip), vehicle: Klucel (hydroxypropylcellulose) (HPC)): 94 % of control

CCCN(CCC)CCCCO
T/C [18]: 195 % of control | T/C [19]: 100 % of control | T/C [20]: 100 % of control

CC1(C)CC(=O)C=C(n2ccccc2=O)C1
T/C [22]: 97 % of control | T/C [23]: 102 % of control | T/C [24]: 97 % of control

CC1(C)C=C(O)C(=O)C(O)=C1
T/C [25]: 102 % of control | T/C [26]: 102 % of control | T/C [9]: 116 % of control | T/C [12]: 103 % of control

COc1ccc(OC)c(NC(=O)C2=C(C)NC(C)=C(C(=O)Nc3cc(OC)ccc3OC)C2c2cccc([N+](=O)[O-])c2)c1
T/C (dose: 7.5 mg/kg/injection, schedule: Q01DX005 (ip), vehicle: Klucel (hydroxypropylcellulose) (HPC)): 101 % of control | T/C [25]: 94 % of control | T/C [26]: 92 % of control

CCC[N+]1=C/c2ccccc2OC(=O)/C=C\1[O-]
T/C [22]: 101 % of control | T/C [23]: 99 % of control | T/C [24]: 100 % of control
